Experimental data from patent US20060100140A1, “Combination of a) n-{5-[4-(4-methyl-piperazino-methyl)-benzoylamido]2-methylphenyl}-4- (3-pyridyl)-2-pyrimidine-amine and b) a histone deacetylase inhibitor for the treatment of leukemia” (priority 2002, published 2006).

Experiments:
Assay type in all cases: cell-based, human
K562 cells = test: Apoptosis by morphological analysis of Wright Giemsa-stained cytospin preparations; conditions: for percentage of apoptotic cells: Table 2A, 2.0 μM SAHA ± 250 nM Compound I; for % of apoptotic cells: Table 5, K562: SAHA […]
Procedure: (§1) Experimental Format: Logarithmically growing cells are placed in sterile plastic T-flasks (Corning, Corning, N.Y.) to which are added the designated drugs and the flasks replaced in the incubator for intervals. At the end of the incubation period, cells are transferred to sterile centrifuge tubes, pelleted by centrifugation at 400×g for 10 min at room temperature, and prepared for analysis as described below.
(§2) Assessment of Apoptosis: After drug exposures, cytocentrifuge preparations are stained with Wright-Giemsa and viewed by light microscopy to evaluate the extent of apoptosis (i.e., cell shrinkage, nuclear condensation, formation of apoptotic bodies, etc.) as described previously (Yu et al., Nat. Rev. Cancer 1:294-202). For these studies, the percentage of apoptotic cells is determined by evaluating ≧500 cells/condition in triplicate. To confirm the results of morphological analysis, Annexin V/PI staining is used. Annexin V/PI (BD PharMingen, San Diego, Calif.) analysis of cell death is carried out as per the manufacturer's instructions. In studies involving TNF and TNF soluble receptor, both compound are combined and maintained at room temperature 20 min prior to use. For these experiments 1-2×10^5 cells per condition are harvested. Analysis is carried out using a Becton-Dickinson FACScan cytofluorometer (Mansfield, Mass.). To further confirm the morphology results, TUNEL staining is used. For TUNEL staining, cytocentrifuge preparations are obtained and fixed with 4% formaldehyde. The slides are treated with acetic acid/ethanol (1:2), stained with terminal transferase reaction mixture containing 1× terminal transferase reaction buffer (0.25 units/μl terminal transferase, 2.5 mM CoCl2, and 2 pmol fluorescein-12-dUTM; Boehringer Mannheim, Indianapolis, Ind.), and visualized using fluorescence microscopy.

[1] = tested on: HL-60 promyelocytic leukemia cells; test: Apoptosis by Wright Giemsa-stained cytospin slides; conditions: HL-60: SAHA 1.0 μM; Compound I 250 nM; 24 hr
Procedure: as §1, §2

[2] = tested on: Jurkat lymphoblastic leukemia; test: Apoptosis by Wright Giemsa-stained cytospin slides; conditions: Jurkat: SAHA 0.75 μM; Compound I 250 nM; 24 hr
Procedure: as §1, §2

[3] = tested on: NB4 promyelocytic leukemia cells; test: Apoptosis by Wright Giemsa-stained cytospin slides; conditions: NB4: SAHA 1.5 μM; Compound I 250 nM; 24 hr
Procedure: as §1, §2

U937 monocytic leukemia = test: Apoptosis by Wright Giemsa-stained cytospin slides; conditions: U937: SAHA 1.5 μM; Compound I 250 nM; 24 hr
Procedure: as §1, §2

[4] = tested on: cytochrome c, AIF, and Smac/DIABLO; test: Western analysis of release of cytochrome c, AIF and Smac/DIABLO into S-100 cytosolic fraction; conditions: K562; Compound I (250 nM), SAHA (2.0 μM); 24 hr
Raf = test: Western analysis of Raf expression in K562 cells; conditions: 2.0 μM SAHA ± 250 nM Compound I, 16 hr
Procedure: (§3) Immunoblot Analysis: Immunoblotting is performed as described previously (Yu et al., Nat. Rev. Cancer 1:294-202). In brief, after drug treatment cells are pelleted by centrifugation, and lysed immediately in Laemmli buffer [1×=30 mM Tris-base (pH 6.8), 2% SDS, […] β-mercaptoethanol, and 10% glycerol], and briefly sonicated. Homogenates are quantified using Coomassie protein assay reagent (Pierce, Rockford, Ill.). Equal amounts of protein (20 μg) are boiled for 10 min, separated by SDS-PAGE (5% stacker and 10% resolving), and electroblotted to nitrocellulose membrane. After blocking in TBS-T (0.05%) and 5% milk for 1 h at 22° C., the blots are incubated in fresh blocking solution with an appropriate dilution of primary antibody for 4 h at 22° C. […]
(§4) K562 cells are treated as above, and monitored for expression of Bcl-xL, Mcl-1, and XIAP. […]

phospho-JNK = test: Western analysis of phospho-JNK in K562 cells; conditions: 2.0 μM SAHA ± 250 nM Compound I, 16 hr
Procedure: as §3, §4

| SMILES | percentage of apoptotic cells (K562 cells; 0 hours) [%] | percentage of apoptotic cells (K562 cells; 6 hours) [%] | percentage of apoptotic cells (K562 cells; 12 hours) [%] | percentage of apoptotic cells (K562 cells; 18 hours) [%] | percentage of apoptotic cells (K562 cells; 24 hours) [%] | percentage of apoptotic cells (K562 cells; 48 hours) [%] | % of apoptotic cells (K562 cells; Compound I 250 nM, 24 hr) [%] | % of apoptotic cells [1] [%] | % of apoptotic cells [2] [%] | % of apoptotic cells [3] [%] | % of apoptotic cells (U937 monocytic leukemia) [%] | release of cytochrome c, AIF, and Smac/DIABLO into the cytosolic S-100 cell fraction [4] | expression of Raf (Raf) | expression of phospho-JNK (JNK activation) (phospho-JNK) | further results |
| --- | --- | --- | --- | --- | --- | --- | --- | --- | --- | --- | --- | --- | --- | --- | --- |
| Cc1ccc(NC(=O)c2ccc(CN3CCN(C)CC3)cc2)cc1Nc1nccc(-c2cccnc2)n1 [Compound I, N-{5-[4-(4-methyl-piperazino-methyl)-benzoylamido]-2-methylphenyl}-4-(3-pyridyl)-2-pyrimidine-amine] | 0.6 ± 0.2 | 1.1 ± 0.5 | 2.1 ± 0.8 | 3.3 ± 1.0 | 3.5 ± 1.2 | 21.8 ± 3.4 | 8.3 ± 3.2 | 3.1 ± 1.3 | 1.1 ± 0.6 | 1.8 ± 1.3 | 0.9 ± 08 | minimal | little effect | fail to modify | apoptosis (K562 cells; Table 1A, Compound I 100 nM, SAHA 0 or 2 μM, 24 hr): 1.1 ± 0.5%; apoptosis (K562 cells; Table 1A, Compound I 150 nM, SAHA 0 or 2 μM, 24 hr): 1.3 ± 0.6%; apoptosis (K562 cells; Table 1A, Compound I 200 nM, SAHA 0 or 2 μM, 24 hr): 1.6 ± 0.6%; apoptosis (K562 cells; Table 1A, Compound I 250 nM, SAHA 0 or 2 μM, 24 hr): 2.8 ± 1.2%; apoptosis (K562 cells; Table 1B, SAHA 0 μM, Compound I 250 nM, 24 hr): 2.7 ± 1.2%; Compound I + SB % of apoptotic cells (K562 cells; Table 6, K562, 24 hr, sodium butyrate (SB; 1 or 2 mM), Compound I concentration not given): 10.3 ± 3.6%; cell death (K562 cells; sensitive K562, Compound I (1.0 or 1.25 μM) for 48 hr, data not shown): ~100% |
| O=C(CCCCCCC(=O)Nc1ccccc1)NO [SAHA, suberoylanilide hydroxamic acid] | 0.6 ± 0.2 | 0.9 ± 0.2 | 1.7 ± 0.5 | 2.3 ± 0.8 | 3.5 ± 1.1 | 14.8 ± 2.1 | 6.6 ± 3.8 | 6.4 ± 1.9 | 6.3 ± 3.2 | 5.6 ± 2.3 | 5.4 ± 1.9 | minimal | clear reduction | fail to modify | apoptosis (K562 cells; Table 1B, SAHA 1 μM, Compound I 0 or 250 nM, 24 hr): 0.8 ± 0.4%; apoptosis (K562 cells; Table 1B, SAHA 1.5 μM, Compound I 0 or 250 nM, 24 hr): 1.6 ± 0.7%; apoptosis (K562 cells; Table 1B, SAHA 2.0 μM, Compound I 0 or 250 nM, 24 hr): 2.7 ± 0.7%; apoptosis (K562 cells; Table 1B, SAHA 3.0 μM, Compound I 0 or 250 nM, 24 hr): 28.4 ± 3.2%; apoptosis (K562 cells; Table 1B, SAHA […], Compound I 0 or 250 nM, 24 hr): 14.5 ± 1.3% |
